For data set [1], the system named is Influenza strain A549 A/WSN/33 (H1N1). Briefly: microbe, parasite or virus in culture. Format: cell-based. The following applies: A549 cells, influenza A/WSN/33 (H1N1), 20 hours incubation, read-out: A549_A(H1N1) EC50.
Data set [2] has as its system Human lung carcinoma A549 cells. The following applies: uninfected A549 cells, CellTiter-Glo. A general note: ATP-based viability assays read luminescence as a measure of living cells.
Data set [3] addresses EN PA (full length recombinant PA endonuclease) (Influenza A virus (strain A/Wilson-Smith/1933 H1N1) (Influenza A virus (strain A/WS/1933 H1N1)), UniProt P15659). The experiment in a line: biochemical. To be noted: full length EN PA 1 to 10 nM, 50 nM FRET probe; mean of a minimum of two independent experiments; read-out: FRET_ _IC50.
A further data set can be described thus: in vitro. To be noted: human, CC50, uninfected A549 cells, CellTiter-Glo.

Each structure is given as a SMILES string. Read-outs that look alike come from different tables or passages of the source.

As a reminder, the EC50 is the concentration that produces a half-maximal response. The CC50 is the concentration that lowers cell viability or growth by half. Higher therefore signals better tolerance by the cells. The IC50 is the concentration that gives 50% inhibition.

As for `O=C1c2c(O)c(=O)ccn2N2CN1C/C=C/CCc1c(F)cccc1C2c1cccc(F)n1` (single isomer, unassigned) [Compound 76A, (16*R,E)-12-fluoro-16-(6-fluoropyridin-2-yl)-4-hydroxy-7,10,11,16-tetrahydro-6,17-methanobenzo[k]pyrido[1,2-b][1,2,5]triazacyclotridecine-3,5-dione], the EC50 in data set [1] was determined as 3590 nM. In data set [2], this molecule came in with a CC50 of 43.9 µM.
Take `O=C1c2c(O)c(=O)ccn2N2CN1C/C=C/CCc1c(F)cccc1C2c1cccc(F)n1` (single isomer, unassigned) [Compound 76B, (16*S,E)-12-fluoro-16-(6-fluoropyridin-2-yl)-4-hydroxy-7,10,11,16-tetrahydro-6,17-methanobenzo[k]pyrido[1,2-b][1,2,5]triazacyclotridecine-3,5-dione]: the EC50 in data set [1] came to 6 nM. In addition, the CC50 in data set [2] is above 0.2 µM.
For `O=C1c2c(O)c(=O)ccn2N2CN1C/C=C/CCc1ccccc1C2c1cccc(F)n1` (single isomer, unassigned) [Compound 78A, (16*R,E)-16-(6-fluoropyridin-2-yl)-4-hydroxy-7,10,11,16-tetrahydro-6,17-methanobenzo[k]pyrido[1,2-b][1,2,5]triazacyclotridecine-3,5-dione], in data set [1], the EC50 turned out to be 19 nM. This molecule had a CC50 in data set [2] above 1 µM.
Turning to `CC1CCCCc2ccccc2C(c2ccccc2)N2CN1C(=O)c1c(O)c(=O)ccn12` (stereo not drawn) [Compound 13, 4-hydroxy-7-methyl-15-phenyl-8,9,10,15-tetrahydro-7H-6,16-methanobenzo[j]pyrido[1,2-b][1,2,5]triazacyclododecine-3,5-dione], the IC50 in data set [3] worked out at 46 nM. In the data set “in vitro”, the CC50 is above 2000 nM. In data set [1] (Influenza A virus, A549, 20 h), the EC50 was 19 nM.
